For 26 compounds, Binding % results are on record in US10377743B2, “Inhibitors of RAS and methods of use thereof” (Araxes Pharma LLC, priority 2016, dated 2019).

Each structure is given as a SMILES string.

The target of this assay is T1, KRAS G12C 1-169, his-tagged protein, GDP-loaded (Homo sapiens, UniProt P01116, G12C).
T1 construct: KRAS G12C 1-169, his-tagged protein, GDP-loaded
Nature of the assay: Biochemical assay: covalent binding (modification %) to KRAS G12C by mass spectrometry. To be noted: 2 hour incubation period, 8 μM compound (compounds 21-92). The protocol:
Test compounds were prepared as 10 mM stock solutions in DMSO (Fisher cat# BP-231-100). KRAS G12C 1-169, his-tagged protein, GDP-loaded was diluted to 2 μM or 0.5 μM in buffer (20 mM Hepes, 150 mM NaCl, 1 mM MgCl2). Compounds were tested for activity as follows:
Compounds were diluted to 50× final test concentration in DMSO in 96-well storage plates. Compound stock solutions were vortexed before use and observed carefully for any sign of precipitation. Dilutions were as follow: • For 100 μM final compound concentration, compounds were diluted to 5000 μM (5 μL 10 mM compound stock+5 μL DMSO and mixed well by pipetting. • For 30 μM final compound concentration, compounds were diluted to 1500 μM (3 μL 10 mM compound stock+17 μL DMSO) and mixed well by pipetting. • For 10 μM final compound concentration, compounds were diluted to 500 μM (2 μL 10 mM compound stock+38 μL DMSO) and mixed well by pipetting. 49 μL of the stock protein solution was added to each well of a 96-well PCR plate (Fisher cat#1423027). 1 μl of the diluted 50× compounds were added to appropriate wells in the PCR plate using 12-channel pipettor. Reactions were mixed carefully and thoroughly by pipetting up/down with a 200 μL multi-channel pipettor. The plate was sealed well with aluminum plate seal, and stored in drawer at room temperature for 10 minutes, 30 minutes, 2 hours or 24 hours. 5 μL of 2% formic acid (Fisher cat# A117) in de-ionized H2O was then added to each well followed by mixing with a pipette. The plate was then resealed with aluminum seal and stored on dry ice until analyzed as described below.
The above described assays were analyzed by mass spectrometry according to one of the following two procedures:
The MS instrument is set to positive polarity, 2 GHz resolution, and low mass (1700) mode and allowed to equilibrate for 30 minutes. The instrument is then calibrated, switched to acquisition mode and the appropriate method loaded.
After another 30 minute equilibration time, a blank batch (i.e., buffer) is run to ensure equipment is operating properly. The samples are thawed at 37° C. for 10 minutes, briefly centrifuged, and transfer to the bench top. Wells A1 and H12 are spiked with 1 μL 500 μM internal standard peptide, and the plates centrifuged at 2000×g for 5 minutes. The method is then run and masses of each individual well recorded.
The masses (for which integration data is desired) for each well are pasted into the platemap and exported from the analysis. Masses for the internal standards are exported as well. The data at 50 ppm is extracted for the +19 charge state, and identity of well A1 is assigned using the internal standard spike and integrated. Peak data is exported as a TOF list and the above steps are repeated individually, for the +20, 21, 22, 23, 24, and 25 charge states.
The masses and peak intensities of KRAS G12C protein species were measured using a Dionex RSLCnano system (Thermo Scientific) connected to a Q Exactive Plus mass spectrometer (Thermo Scientific).
[…] of sample was each loaded onto a Aeris™ 3.6 μm WIDEPORE C4 200 Å, LC Column 50×2.1 mm column maintained at 40° C. at a flow rate of 600 μL/min with 20% Solvent A (0.1% formic acid in H2O) and 80% Solvent B (0.1% formic acid in acetonitrile). The liquid chromatography conditions were 20% solvent B for 1 minute, 20% to 60% solvent B for 1.5 minutes, 60% to 90% solvent for 0.5 minute, 90% solvent B for 0.2 minute, 90% to 20% solvent B for 0.2 minute, and then equilibrated for 1.6 minute before the following sample injection. The flow rate was maintained at 600 μL/min throughout the sample analysis.
The mass spectrometer was operated in profile mode at a resolution of 17500, 5 microscans, using 50 msec max injection time and an AGC target of 1×10^6, and a full mass range from 800-1850 m/z was recorded. The HCD trapping gas was optimized for maximum sensitivity for intact proteins. […]
In the case of `C=CC(=O)N1CC(N2Cc3ccc(-c4cccc(C(N)=O)c4)cc3C2=O)C1` [Compound 50, 3-(2-(1-acryloylazetidin-3-yl)-3-oxoisoindolin-5-yl)benzamide], the Binding % entry is reported as “+ (+ indicates binding activity up to 10%)”.

For `C=CC(=O)N1CC(N2Cc3ccc(-c4cc(O)cc5ccccc45)cc3C2)C1` [Compound 51, 1-(3-(5-(3-hydroxynaphthalen-1-yl)isoindolin-2-yl)azetidin-1-yl)prop-2-en-1-one], the Binding % entry is reported as “+ (+ indicates binding activity up to 10%)”.

On to `C=CC(=O)N1CC(N2Cc3ccc(-c4ccc(NC)cc4)cc3C2=O)C1` [Compound 52, 2-(1-acryloylazetidin-3-yl)-6-(4-(methylamino)phenyl)isoindolin-1-one], for which the Binding % entry is “+ (+ indicates binding activity up to 10%)”.

`C=CC(=O)N1CC(N2Cc3ccc(-c4cccc5cn[nH]c45)cc3C2=O)C1` [Compound 53, 2-(1-acryloylazetidin-3-yl)-6-(1H-indazol-7-yl)isoindolin-1-one]: the Binding % result is on record as “+ (+ indicates binding activity up to 10%)”.

Regarding `C=CC(=O)N1CC(N2Cc3ccc(-c4cccc(O)n4)cc3C2=O)C1` [Compound 54, 2-(1-acryloylazetidin-3-yl)-6-(6-hydroxypyridin-2-yl)isoindolin-1-one], the Binding % entry is “+ (+ indicates binding activity up to 10%)”.

For the compound `C=CC(=O)N1CC(N2Cc3ccc(-c4cccc(C#N)c4)cc3C2=O)C1` [Compound 55, 3-(2-(1-acryloylazetidin-3-yl)-3-oxoisoindolin-5-yl)benzonitrile], the Binding % result is listed as “+ (+ indicates binding activity up to 10%)”.

As to `C=CC(=O)N1CC(N2Cc3ccc(-c4c(C)ccc5[nH]ncc45)cc3C2)C1` [Compound 56, 1-(3-(5-(5-methyl-1H-indazol-4-yl)isoindolin-2-yl)azetidin-1-yl)prop-2-en-1-one], the Binding % result is “+ (+ indicates binding activity up to 10%)”.

For the compound `C=CC(=O)N1CC(N2Cc3ccc(N4CCc5ccccc54)cc3C2=O)C1` [Compound 57, 2-(1-acryloylazetidin-3-yl)-6-(indolin-1-yl)isoindolin-1-one], the Binding % result is given as “+ (+ indicates binding activity up to 10%)”.

On to `C=CC(=O)N1CC(N2Cc3ccc(-c4cccc(NC)c4)cc3C2=O)C1` [Compound 58, 2-(1-acryloylazetidin-3-yl)-6-(3-(methylamino)phenyl)isoindolin-1-one], for which the Binding % entry is listed as “+ (+ indicates binding activity up to 10%)”.

Turning to `C=CC(=O)N1CC(N2Cc3ccc(N4CCC(O)C4)cc3C2=O)C1` (centres unmarked) [Compound 59, 2-(1-acryloylazetidin-3-yl)-6-(3-hydroxypyrrolidin-1-yl)isoindolin-1-one], the Binding % result is reported as “+ (+ indicates binding activity up to 10%)”.

As for `C=CC(=O)N1CC(N2Cc3ccc(-c4ccccc4NC)cc3C2=O)C1` [Compound 60, 2-(1-acryloylazetidin-3-yl)-6-(2-(methylamino)phenyl)isoindolin-1-one], the Binding % entry is given as “+ (+ indicates binding activity up to 10%)”.

`C=CC(=O)N1CC(N2Cc3ccc(-c4ccccc4C#N)cc3C2=O)C1` [Compound 61, 2-(2-(1-acryloylazetidin-3-yl)-3-oxoisoindolin-5-yl)benzonitrile]: the Binding % result is recorded as “+ (+ indicates binding activity up to 10%)”.

`C=CC(=O)N1CC(N2Cc3ccc(N4CCC(N(C)C)C4)cc3C2=O)C1` (centres unmarked) [Compound 62, 2-(1-acryloylazetidin-3-yl)-6-(3-(dimethylamino)pyrrolidin-1-yl)isoindolin-1-one]: the Binding % entry is recorded as “+ (+ indicates binding activity up to 10%)”.

Consider `C=CC(=O)N1CC(N2Cc3cc(C(N)=O)c(-c4cc(O)cc5ccccc45)cc3C2=O)C1` [Compound 63, 2-(1-acryloylazetidin-3-yl)-6-(3-hydroxynaphthalen-1-yl)-1-oxoisoindoline-5-carboxamide], for which the Binding % result is recorded as “++ (++ indicates binding activity from 10 to 50%)”.

Regarding `C=CC(=O)N1CC(N2Cc3cc(C#N)c(-c4cc(O)cc5ccccc45)cc3C2=O)C1` [Compound 64, 2-(1-acryloylazetidin-3-yl)-6-(3-hydroxynaphthalen-1-yl)-1-oxoisoindoline-5-carbonitrile], the Binding % entry is reported as “+++ (+++ indicates binding activity greater than 50%)”.

Regarding `C=CC(=O)N1CC(N2Cc3ccc(-c4c(C)ccc5[nH]nc(N)c45)cc3C2=O)C1` [Compound 65, 2-(1-acryloylazetidin-3-yl)-6-(3-amino-5-methyl-1H-indazol-4-yl)isoindolin-1-one], the Binding % entry is recorded as “+++ (+++ indicates binding activity greater than 50%)”.

Take `C=CC(=O)N1CC(N2Cc3ccc(-c4cn[nH]c4)cc3C2=O)C1` [Compound 66, 2-(1-acryloylazetidin-3-yl)-6-(1H-pyrazol-4-yl)isoindolin-1-one]: the Binding % entry is on record as “+ (+ indicates binding activity up to 10%)”.

As to `C=CC(=O)N1CC(N2Cc3ccc(-c4cc(O)cc5ccccc45)c(F)c3C2=O)C1` [Compound 67, 2-(1-acryloylazetidin-3-yl)-7-fluoro-6-(3-hydroxynaphthalen-1-yl)isoindolin-1-one], the Binding % entry is on record as “+++ (+++ indicates binding activity greater than 50%)”.

`C=CC(=O)N1CC(N2Cc3ccc(-c4cccnc4O)cc3C2=O)C1` [Compound 68, 2-(1-acryloylazetidin-3-yl)-6-(2-hydroxypyridin-3-yl)isoindolin-1-one]: the Binding % result was “+ (+ indicates binding activity up to 10%)”.

As for `C=CC(=O)N1CC(N2Cc3ccc(-c4c(C)ccc5[nH]ncc45)c(F)c3C2=O)C1` [Compound 69, 2-(1-acryloylazetidin-3-yl)-7-fluoro-6-(5-methyl-1H-indazol-4-yl)isoindolin-1-one], the Binding % entry was “++ (++ indicates binding activity from 10 to 50%)”.

As to `C=CC(=O)N1CC(N2Cc3cc(Cl)c(-c4cc(O)cc5ccccc45)cc3C2=O)C1` [Compound 70, 2-(1-acryloylazetidin-3-yl)-5-chloro-6-(3-hydroxynaphthalen-1-yl)isoindolin-1-one], the Binding % result was “+++ (+++ indicates binding activity greater than 50%)”.

`C=CC(=O)N1CC(N2Cc3ccc(NC4CCCN(C(C)=O)C4)cc3C2=O)C1` (centres unmarked) [Compound 71, 6-((1-acetylpiperidin-3-yl)amino)-2-(1-acryloylazetidin-3-yl)isoindolin-1-one]: the Binding % result is recorded as “+ (+ indicates binding activity up to 10%)”.

`C=CC(=O)N1CC(N2Cc3ccc(N4CCCC(O)C4)cc3C2=O)C1` (centres unmarked) [Compound 72, 2-(1-acryloylazetidin-3-yl)-6-(3-hydroxypiperidin-1-yl)isoindolin-1-one]: the Binding % entry is “+ (+ indicates binding activity up to 10%)”.

With `C=CC(=O)N1CC(N2Cc3ccc(-c4c(O)ccc5ccccc45)cc3C2=O)C1` [Compound 73, 2-(1-acryloylazetidin-3-yl)-6-(2-hydroxynaphthalen-1-yl)isoindolin-1-one], the Binding % entry is on record as “++ (++ indicates binding activity from 10 to 50%)”.

Regarding `C=CC(=O)N1CC(N2Cc3cc(Cl)c(-c4c(C)ccc5[nH]ncc45)cc3C2=O)C1` [Compound 74, 2-(1-acryloylazetidin-3-yl)-5-chloro-6-(5-methyl-1H-indazol-4-yl)isoindolin-1-one], the Binding % entry is reported as “++ (++ indicates binding activity from 10 to 50%)”.

On to `C=CC(=O)N1CC(N2Cc3ccc(NC4CCN(C(C)=O)C4)cc3C2=O)C1` (centres unmarked) [Compound 75, 6-((1-acetylpyrrolidin-3-yl)amino)-2-(1-acryloylazetidin-3-yl)isoindolin-1-one], for which the Binding % result is on record as “+ (+ indicates binding activity up to 10%)”.
